Measured values as given in the supplement of paper PMC8967900.

Key:
Assay in all cases: selective drug sensitivity score (sDSS, relative to normal bone marrow) (sDSS (score)); higher = more potent and effective on the cell line relative to normal bone marrow cells
Settings in all cases: 72 h
[1] = tested on: COG-LL-332h
[2] = tested on: CCRF-HSB2
[3] = tested on: NALM-6
[4] = tested on: NALL-1
[5] = tested on: SEM cells
[6] = tested on: KASUMI-10
[7] = tested on: MHH-CALL-4
[8] = tested on: COG-LL-319h
[9] = tested on: DND-41
[10] = tested on: REH
[11] = tested on: HPB-ALL
[12] = tested on: MOLT-14
[13] = tested on: LC4-1
[14] = tested on: NALM-16
[15] = tested on: TANOUE
[16] = tested on: KASUMI-2
[17] = tested on: SUP-B15
[18] = tested on: CCRF-CEM
[19] = tested on: MOLT-16
[20] = tested on: MN-60
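Note: ALL cell lines in 384-well plates, five doses spanning 10,000-fold, each plate scaled between vehicle and 100 µmol/L benzalkonium chloride controls, sDSS an adapted area-under-curve metric.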

Compound | selective drug sensitivity score [1] | selective drug sensitivity score [2] | selective drug sensitivity score [3] | selective drug sensitivity score [4] | selective drug sensitivity score [5] | selective drug sensitivity score [6] | selective drug sensitivity score [7] | selective drug sensitivity score [8] | selective drug sensitivity score [9] | selective drug sensitivity score [10] | selective drug sensitivity score [11] | selective drug sensitivity score [12] | selective drug sensitivity score [13] | selective drug sensitivity score [14] | selective drug sensitivity score [15] | selective drug sensitivity score [16] | selective drug sensitivity score [17] | selective drug sensitivity score [18] | selective drug sensitivity score [19] | selective drug sensitivity score [20]
N.N.[Cl][Pt][Cl] [Cisplatin] (top concentration 100000 nM) | 19.4 | 21 | 0.64 | 6.84 | 12.2 | 12 | 10.7 | 19.4 | 9.54 | 10.8 | 7.14 | 18.6 | 17.7 | -0.86 | -3.16 | 17.2 | 17.4 | 15.3 | 17.7 | -0.56
CN1C(=O)N[C@H](Cc2c[nH]c3c(Cl)cccc23)C1=O [Necrostatin_2] (top concentration 10000 nM) | -0.08 | -0.08 | -0.08 | -0.08 | -0.08 | -0.08 | -0.08 | -0.08 | -0.08 | -0.08 | -0.08 | -0.08 | -0.08 | -0.08 | -0.08 | -0.08 | -0.08 | -0.08 | -0.08 | -0.08
CCS(=O)(=O)N1CC(CC#N)(n2cc(-c3ncnc4[nH]ccc34)cn2)C1 [Baricitinib] (top concentration 2500 nM) | 0.16 | -1.94 | -1.94 | -1.94 | -1.94 | -1.94 | -1.24 | -1.94 | 3.66 | -1.94 | -1.94 | -1.94 | -1.94 | -1.94 | -1.94 | -1.94 | -1.94 | -1.94 | -1.94 | -1.94
COc1cc(N2CCN(C)CC2)ccc1Nc1nccc(-c2cn(C)c3cnccc23)n1 [AZ191] (top concentration 10000 nM) | -0.02 | 1.18 | -1.72 | 2.88 | 5.58 | 5.38 | 1.98 | -2.92 | 0.08 | 0.48 | -4.72 | -1.32 | -2.72 | -3.72 | -4.62 | -5.12 | -2.72 | -1.42 | -1.32 | -1.92
Nc1cccc2c1C(=O)N(C1CCC(=O)NC1=O)C2=O (stereo not given) [Pomalidomide] (top concentration 10000 nM) | -0.26 | -0.26 | -0.26 | -0.06 | 3.64 | 0.24 | 7.54 | -0.26 | 4.24 | 2.74 | 1.44 | -0.26 | 4.54 | -0.26 | -0.26 | -0.26 | -0.26 | -0.26 | -0.26 | -0.26
CCN1CCN(c2ccc(Nc3cc(N(C)C(=O)Nc4c(Cl)c(OC)cc(OC)c4Cl)ncn3)cc2)CC1 [Infigratinib] (top concentration 1000 nM) | 0 | 0 | 0 | 0 | 0 | 0 | 0 | 0 | 0 | 0 | 0 | 0 | 0 | 0 | 0 | 0 | 0 | 0 | 0 | 0
CC1(C)C(C(=O)Nc2ccc(S(=O)(=O)c3ccc(NC(=O)C4C(C)(C)C4(C)C)cc3)cc2)C1(C)C [BRD7116] (top concentration 10000 nM) | -0.24 | 0.16 | 1.96 | -0.24 | -0.24 | 0.86 | -0.24 | 1.26 | -0.24 | 2.86 | 3.26 | 2.16 | 1.76 | 1.06 | -0.24 | -0.24 | -0.14 | 1.16 | 1.26 | -0.04
Cc1cc(Nc2nc(N[C@@H](C)c3ncc(F)cn3)ncc2Cl)[nH]n1 [AZD1480] (top concentration 1000 nM) | -3.08 | -1.78 | -3.58 | -1.48 | -1.98 | -0.48 | -0.78 | -1.68 | 0.72 | -4.08 | -3.48 | -4.28 | -4.08 | -4.28 | -4.28 | -4.28 | 0.02 | -3.98 | -4.28 | -4.28
O=S(=O)(c1cccc2c(O)nccc12)N1CCCNCC1 [Hydroxyfasudil] (top concentration 19000 nM) | -0.82 | 0.98 | -0.92 | 2.58 | 0.08 | -0.82 | -0.12 | -0.72 | -0.92 | -0.62 | -0.92 | -0.92 | -0.92 | -0.92 | -0.92 | 0.08 | -0.52 | -0.32 | -0.02 | -0.92
